# Measurements reported in US7049295B2, “Compounds and use thereof to modify transport across cell membranes” (Biotransys Limited, priority 1999, dated 2006).
# Experiments:
# HUVECs = test: Transcellular transport of horse radish peroxidase (HRP) across a cell monolayer on filter; type: cell-based, human
# Description: Transport of horse radish peroxidase (HRP) across a cellular membrane was measured using the apparatus shown schematically in FIG. 4, with the addition of biovectors (BVS1 etc). The apparatus comprises upper and lower compartments (1, 2 respectively) separated by a filter 3 on which the cells 4 are grown. HRP and biovectors are added to the medium in the upper compartment 1, and HRP is assayed in the lower compartment 2.
# Transcellular transport was determined as above for the HUVECs studies. […]
# [1] = system: receptor isolated from the HUVECS plasma membrane (albumin receptor protein); test: Interaction with purified isolated receptor reconstituted into FPE-labelled artificial membranes; type: binding, human
# Excerpt: (§1) The following Examples illustrate the behaviour of various peptides and other molecules that promote transcellular transport of therapeutic molecules etc. These studies make use of techniques that show the interactions of molecules with receptors and cell membranes. […] The underlying theory and application of this technique is outlined in: • Wall, J., Ayoub, F. & O'Shea. P. (1995) J. Cell Sci. 108, 2673–2682 • Cladera, J. and O'Shea, P. (1998) Biophys. J. 74, 2434–2442 • Cladera, J., Martin, I., Ruysschaert, J. M. and O'Shea, P. (1999) J. Biol. Chem. 274, 29951–29959 the teaching of all of which is incorporated herein by reference.
# At the arrows, 5 μM BVS1 was added. Two separate experiments are shown and offset in the time dimension for clarity.
# Caco2 cells = test: Transcellular transport of HRP across monolayers of Caco2 cells; type: cell-based; settings: Caco2 monolayer, following treatment with 5 μM BVS1 (absence of BVS1: ca 0.001)
# Description: Caco2 cells were cultured (passage 17–30) with standard methods and used at ca 21 days. Cells were plated at a density of ca. […] on Transwell® filters (2–4 μm, mean pore size).
# The viability of cells for transport was assessed on the basis of the transcellular electrical resistance and values […] were assessed as viable.
# Transcellular transport was determined as above for the HUVECs studies. In the absence of BVS1 transcellular transport was determined to be ca 0.001 nM min^−1.
# [2] = system: receptor located in human umbilical vein endothelial cells (HUVECS); test: Interaction of designer peptides with FPE-labelled human cells possessing membrane receptor (fluorescence); type: binding
# Excerpt: as §1
# Human umbilical endothelial cells were labelled with FPE and challenged with the indicated amounts of BVS1 peptides. […] Fluorescence was recorded at 518 nm after excitation at 490 nm.
# Two separate experiments are shown and offset in the time dimension for clarity. Peptides were added as indicated by the arrows. The BVS1 peptide was added in both experiments. In the second trace, however, addition of BVS1 was preceded by the addition of 300 nM IL-8.
# [3] = +5 μM biovector, over baseline 0.003 nM/min^−1
substance,measurement,setting,value
AGIGALFLGFLGAAG [BVS16],Facilitated transport,HUVECs; [3],9 X Fold
AVGIGALFLGFLGAAG [BVS1],binding to reconstituted isolated receptor (FPE fluorescence increase),[1]; 5 μM BVS1,clearly binds to a receptor
same,binding to reconstituted isolated receptor after prior addition of human serum albumin,[1]; 5 μM BVS1 preceded by 5 μM human serum albumin,unable to bind
same,Facilitated transport,HUVECs; +5 μM PSNU then +5 μM BVS1,3/0
same,Facilitated transport,HUVECs; [3],15 X Fold
same,transcellular transport,Caco2 cells,0.02 nM/min
same,binding to receptor (FPE fluorescence),[2]; HUVECS labelled with FPE,clearly binds to a receptor
same,binding to receptor after prior addition of IL-8,[2]; addition of BVS1 preceded by 300 nM IL-8,unable to bind
GVFVLGFLGFLATAGS [BVS9],Facilitated transport,HUVECs; [3],7 X Fold
GVFVLGLFGFLA [BVS5],Facilitated transport,HUVECs; [3],22 X Fold
interleukin-8 [IL-8],binding of IL-8 to the receptor targeted by BVS1,[2]; 300 nM IL-8,appears to bind
"polysulfonylnaphthylurea [PSNU, reference compound]",interaction with reconstituted albumin receptor protein (FPE),[1]; 2 μM PSNU,interactions take place
same,Facilitated transport,HUVECs; [3],3 X Fold
